Assay results as given in patent US8921376B2, “Pyrrolopyridines useful as inhibitors of protein kinase” (Vertex Pharmaceuticals Incorporated, priority 2005, dated 2014).
pKi: −log10 of the molar value.

Experiments:
Type in all cases: biochemical
JAK3 = molecular target: T1, JAK3 (Homo sapiens, UniProt P52333); assay: JAK3 inhibition assay (33P incorporation into poly(Glu)4Tyr)
T1 sequence (P52333 1-1124): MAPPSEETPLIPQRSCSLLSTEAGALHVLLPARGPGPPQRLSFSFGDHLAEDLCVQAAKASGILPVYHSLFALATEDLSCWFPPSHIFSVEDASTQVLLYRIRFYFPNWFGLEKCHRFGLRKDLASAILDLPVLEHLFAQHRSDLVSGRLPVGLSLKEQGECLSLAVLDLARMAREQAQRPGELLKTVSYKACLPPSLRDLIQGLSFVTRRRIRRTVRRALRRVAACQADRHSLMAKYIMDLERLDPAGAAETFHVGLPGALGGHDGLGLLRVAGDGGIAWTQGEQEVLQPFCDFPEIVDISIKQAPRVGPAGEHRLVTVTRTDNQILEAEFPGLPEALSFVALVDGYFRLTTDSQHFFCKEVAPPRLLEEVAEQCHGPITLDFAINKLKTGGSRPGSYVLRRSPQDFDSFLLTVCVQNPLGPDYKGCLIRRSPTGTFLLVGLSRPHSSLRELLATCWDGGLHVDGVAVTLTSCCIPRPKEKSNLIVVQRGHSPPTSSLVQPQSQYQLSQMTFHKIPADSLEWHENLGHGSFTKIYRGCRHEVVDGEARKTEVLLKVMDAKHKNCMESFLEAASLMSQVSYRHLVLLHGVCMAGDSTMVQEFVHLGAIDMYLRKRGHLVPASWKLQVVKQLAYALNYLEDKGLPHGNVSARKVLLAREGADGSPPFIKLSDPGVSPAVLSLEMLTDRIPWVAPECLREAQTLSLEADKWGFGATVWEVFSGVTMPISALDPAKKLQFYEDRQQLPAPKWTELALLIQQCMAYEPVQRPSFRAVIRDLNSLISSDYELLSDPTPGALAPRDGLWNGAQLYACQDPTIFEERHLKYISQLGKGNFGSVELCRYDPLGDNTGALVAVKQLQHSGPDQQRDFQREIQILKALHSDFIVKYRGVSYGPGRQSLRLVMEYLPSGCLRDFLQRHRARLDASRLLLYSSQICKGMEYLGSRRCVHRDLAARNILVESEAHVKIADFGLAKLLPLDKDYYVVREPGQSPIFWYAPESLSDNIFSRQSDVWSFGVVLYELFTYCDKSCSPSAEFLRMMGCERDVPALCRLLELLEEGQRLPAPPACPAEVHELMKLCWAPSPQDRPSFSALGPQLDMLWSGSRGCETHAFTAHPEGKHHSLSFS
Method in brief: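 After TCA quench and filter harvest, scintillation counting of 33P measured phosphorylation of poly(Glu)4Tyr (1 μM) by 1 nM JAK3. The 20-min, 25° C. reaction contained 5 μM ATP (200 μCi/μmole) in pH 7.4 HEPES buffer with 10 mM MgCl2.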

ROCK I = ROCK I (Homo sapiens, UniProt Q13464); assay: ROCK-I inhibition assay (radioactive enzyme assay, MBP substrate)
Chain of ROCK I (Q13464 whole entry): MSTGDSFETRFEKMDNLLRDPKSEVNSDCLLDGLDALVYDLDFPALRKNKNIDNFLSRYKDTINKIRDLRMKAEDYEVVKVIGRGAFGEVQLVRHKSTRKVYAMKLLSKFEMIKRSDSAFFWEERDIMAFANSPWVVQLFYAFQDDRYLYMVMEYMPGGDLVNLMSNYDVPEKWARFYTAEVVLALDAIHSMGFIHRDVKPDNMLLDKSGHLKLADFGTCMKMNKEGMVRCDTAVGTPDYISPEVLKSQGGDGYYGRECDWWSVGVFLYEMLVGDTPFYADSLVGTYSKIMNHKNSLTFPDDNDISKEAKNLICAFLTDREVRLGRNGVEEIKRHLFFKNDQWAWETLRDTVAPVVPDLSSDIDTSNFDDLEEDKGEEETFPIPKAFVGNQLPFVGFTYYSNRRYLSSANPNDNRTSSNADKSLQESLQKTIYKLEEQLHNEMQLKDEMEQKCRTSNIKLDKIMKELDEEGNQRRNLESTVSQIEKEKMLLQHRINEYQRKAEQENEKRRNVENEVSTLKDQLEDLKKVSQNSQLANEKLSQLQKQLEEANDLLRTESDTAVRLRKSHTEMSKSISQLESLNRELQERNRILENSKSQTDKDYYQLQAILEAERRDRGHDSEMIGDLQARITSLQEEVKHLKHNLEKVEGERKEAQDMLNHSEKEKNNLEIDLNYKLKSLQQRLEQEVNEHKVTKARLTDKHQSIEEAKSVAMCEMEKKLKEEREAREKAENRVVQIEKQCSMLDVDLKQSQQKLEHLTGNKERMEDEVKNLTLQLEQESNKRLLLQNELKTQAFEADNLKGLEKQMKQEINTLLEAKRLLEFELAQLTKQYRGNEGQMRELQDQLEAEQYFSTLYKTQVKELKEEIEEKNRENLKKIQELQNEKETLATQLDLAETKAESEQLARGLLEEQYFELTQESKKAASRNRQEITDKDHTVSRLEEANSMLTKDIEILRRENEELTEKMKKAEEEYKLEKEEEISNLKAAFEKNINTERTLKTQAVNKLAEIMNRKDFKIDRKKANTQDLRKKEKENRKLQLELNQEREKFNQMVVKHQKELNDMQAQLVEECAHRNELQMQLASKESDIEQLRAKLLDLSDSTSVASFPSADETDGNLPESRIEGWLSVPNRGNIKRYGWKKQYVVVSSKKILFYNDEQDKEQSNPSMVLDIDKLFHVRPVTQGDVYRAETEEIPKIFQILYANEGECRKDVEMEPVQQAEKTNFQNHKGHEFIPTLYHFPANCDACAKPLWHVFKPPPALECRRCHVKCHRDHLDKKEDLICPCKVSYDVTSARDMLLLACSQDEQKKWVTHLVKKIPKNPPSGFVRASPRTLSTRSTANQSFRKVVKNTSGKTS
Method in brief: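 Human ROCK at 5 nM phosphorylated 27 μM myelin basic protein with 13 μM [γ-33P]ATP (final) in HEPES pH 7.5, MgCl2, NaCl, DTT and 1.5% DMSO. Reactions ran 2 h at room temperature before TCA quench and filter-plate scintillation counting. After background subtraction, data were fit to give Ki(app).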

JAK2 = JAK2 (Homo sapiens, UniProt O60674); assay: JAK2 inhibition assay (as Example 3 with JAK-2 enzyme)
Chain of JAK2 (O60674 whole entry): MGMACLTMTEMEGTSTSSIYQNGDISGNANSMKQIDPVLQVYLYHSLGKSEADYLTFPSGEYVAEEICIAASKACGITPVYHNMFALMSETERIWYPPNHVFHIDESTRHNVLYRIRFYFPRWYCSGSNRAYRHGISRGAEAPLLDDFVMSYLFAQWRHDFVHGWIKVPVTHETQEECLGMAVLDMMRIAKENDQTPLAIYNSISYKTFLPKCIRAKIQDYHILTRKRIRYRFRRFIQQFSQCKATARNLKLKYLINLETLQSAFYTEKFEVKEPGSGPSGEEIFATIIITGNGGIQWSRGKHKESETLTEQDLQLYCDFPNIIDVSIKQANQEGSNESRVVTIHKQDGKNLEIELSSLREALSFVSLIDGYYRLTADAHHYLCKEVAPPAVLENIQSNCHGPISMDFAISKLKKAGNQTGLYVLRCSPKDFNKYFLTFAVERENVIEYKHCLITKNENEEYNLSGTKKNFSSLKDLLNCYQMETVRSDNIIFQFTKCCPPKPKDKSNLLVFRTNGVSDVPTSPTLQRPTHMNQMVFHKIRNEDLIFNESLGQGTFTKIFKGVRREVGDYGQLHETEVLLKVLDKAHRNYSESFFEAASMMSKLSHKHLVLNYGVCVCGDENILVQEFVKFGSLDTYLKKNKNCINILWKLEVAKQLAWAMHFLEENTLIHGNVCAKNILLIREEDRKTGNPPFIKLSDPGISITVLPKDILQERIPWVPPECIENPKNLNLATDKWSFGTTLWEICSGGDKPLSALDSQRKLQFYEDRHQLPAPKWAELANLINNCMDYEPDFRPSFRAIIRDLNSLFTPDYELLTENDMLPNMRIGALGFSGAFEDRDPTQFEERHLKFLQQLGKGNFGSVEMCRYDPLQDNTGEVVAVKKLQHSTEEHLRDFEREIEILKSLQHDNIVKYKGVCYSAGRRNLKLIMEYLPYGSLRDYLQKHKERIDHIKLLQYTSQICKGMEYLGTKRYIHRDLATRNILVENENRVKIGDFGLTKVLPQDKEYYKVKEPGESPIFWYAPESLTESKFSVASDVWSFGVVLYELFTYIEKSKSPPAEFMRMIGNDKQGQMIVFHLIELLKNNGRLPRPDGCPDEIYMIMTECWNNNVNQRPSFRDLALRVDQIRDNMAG
Method in brief: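 In HEPES pH 7.4 buffer with 10 mM MgCl2, 1 mM DTT, 25 mM NaCl and 0.01% BSA, JAK2 enzyme phosphorylated poly(Glu)4Tyr (final 15 μM) using 33P-ATP (final 12 μM) for 20 min at room temperature (25 °C). Reactions stopped with TCA; incorporated 33P measured by scintillation after filtration.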

[1] = Table 6, enzyme inhibition data (Ki)
[2] = enzyme inhibition, Ki(app), Table 5

pKi (JAK3; [1]) | pKi (ROCK I; [1]) | pKi (JAK2; [1]) | pKi (JAK3; enzyme inhibition, Table 5) | pKi (ROCK I; [2]) | pKi (JAK2; enzyme inhibition, Table 5) | SMILES
> 6.30 | 5.30 to 6.30 | > 6.30 | – | – | – | Fc1cnc2[nH]ccc2c1-c1ccc(CN(CCC(F)(F)F)CC2CC2)o1 [compound 382]
> 6.30 | > 6.30 | > 6.30 | – | – | – | O=C(NCC(F)F)c1cc(-c2ccnc3[nH]ccc23)c[nH]1 [compound 292]
> 6.30 | < 5.40 | > 6.30 | – | – | – | CCCN(CCC)C(=O)c1cc(-c2c(Cl)cnc3[nH]ccc23)c[nH]1 [compound 340]
< 5.30 | < 5.40 | < 5.30 | – | – | – | c1ccc(COc2ccccc2-c2ccnc3[nH]ccc23)cc1 [compound 225]
> 6.30 | < 5.40 | > 6.30 | – | – | – | O=C1NCCCC[C@@H]1Nc1c(Cl)cnc2[nH]ccc12 [compound 228]
< 5.30 | < 5.40 | < 5.30 | – | – | – | CS(=O)(=O)Nc1ccccc1-c1ccnc2[nH]ccc12 [compound 247]
> 6.30 | > 6.30 | > 6.30 | – | – | – | N#CCCN(CCC(F)(F)F)C(=O)c1csc(-c2ccnc3[nH]ccc23)n1 [compound 405, 2-(1H-Pyrrolo[2,3-b]pyridin-4-yl)-thiazole-4-carboxylic acid (2-cyano-ethyl)-(3,3,3-trifluoro-propyl)-amide]
> 6.30 | > 6.30 | > 6.30 | – | – | – | C=CCN(CC=C)C(=O)c1csc(-c2ccnc3[nH]ccc23)n1 [compound 401]
– | – | – | > 6.30 | 5.30 to 6.30 | 5.30 to 6.30 | CC(C)(Nc1nc(-c2ccnc3[nH]ccc23)ncc1F)C(=O)NCC(F)(F)F [compound 131]
– | – | – | > 6.30 | > 6.30 | > 6.30 | N#Cc1ccc(-c2ccnc3[nH]ccc23)s1 [compound 108, 5-(1H-Pyrrolo[2,3-b]pyridin-4-yl)-thiophene-2-carbonitrile]
> 6.30 | 5.30 to 6.30 | > 6.30 | – | – | – | N#CCCN(Cc1cccnc1)C(=O)c1cc(-c2c(Cl)cnc3[nH]ccc23)c[nH]1 [compound 331]
> 6.30 | 5.30 to 6.30 | > 6.30 | – | – | – | CNC(=O)c1cc(-c2c(Cl)cnc3[nH]ccc23)c[nH]1 [compound 277]
– | – | – | > 6.30 | > 6.30 | > 6.30 | N#CC1(c2cccc(-c3ccnc4[nH]ccc34)n2)CCCC1 [compound 102, 1-(6-(1H-pyrrolo[2,3-b]pyridin-4-yl)pyridin-2-yl)cyclopentanecarbonitrile]
– | – | – | 5.30 to 6.30 | 5.30 to 6.30 | < 5.30 | Cc1cccnc1-c1ccnc2[nH]ccc12 [compound 74, 4-(3-methylpyridin-2-yl)-1H-pyrrolo[2,3b]pyridine]
– | – | – | > 6.30 | > 6.30 | > 6.30 | Cc1ccc(-c2ccnc3[nH]ccc23)cc1C [compound 110, 4-(3,4-Dimethyl-phenyl)-1H-pyrrolo[2,3-b]pyridine]
– | – | – | > 6.30 | > 6.30 | > 6.30 | Clc1cnc2[nH]ccc2c1NC1CCCCC1 [compound 126, 5-chloro-N-cyclohexyl-1H-pyrrolo[2,3-b]pyridin-4-amine]
> 6.30 | > 6.30 | > 6.30 | – | – | – | CN(CCc1ccccn1)C(=O)c1cc(-c2ccnc3[nH]ccc23)c[nH]1 [compound 367]
< 5.30 | < 5.40 | < 5.30 | – | – | – | Cc1cc(C)c(-c2ccnc3[nH]ccc23)c(C)c1 [compound 242]
– | – | – | > 6.30 | 5.30 to 6.30 | > 6.30 | CC(=O)N1CCCN(c2cccc(-c3c(Cl)cnc4[nH]ccc34)n2)CC1 [compound 76, 1-(4-(6-(5-Chloro-1H-pyrrolo[2,3-b]pyridin-4-yl)pyridin-2-yl)-1,4-diazepan-1-yl)ethanone]
– | – | – | 5.30 to 6.30 | 5.30 to 6.30 | 5.30 to 6.30 | c1cc(NCC2CCCO2)nc(-c2ccnc3[nH]ccc23)c1 (stereo not drawn) [compound 36, N-((tetrahydrofuran-2-yl)methyl)-6-(1H-pyrrolo[2,3-b]pyridin-4-yl)pyridin-2-amine]
– | – | – | 5.30 to 6.30 | 5.30 to 6.30 | 5.30 to 6.30 | Clc1cnc2[nH]ccc2c1-c1cccc(N2CCCC2)n1 [compound 79, 5-Chloro-4-(6-(pyrrolidin-1-yl)pyridine-2-yl)-1H-pyrrolo[2,3-b]pyridine]
> 6.30 | > 6.30 | > 6.30 | – | – | – | O=C(Nc1ccccc1)c1ccc(-c2ccnc3[nH]ccc23)cc1 [compound 271]
– | – | – | 5.30 to 6.30 | 5.30 to 6.30 | 5.30 to 6.30 | c1cc(NCc2ccc3c(c2)OCO3)nc(-c2ccnc3[nH]ccc23)c1 [compound 60, N-((Benzo[d][1,3]dioxol-6-yl)methyl)-6-(1H-pyrrolo[2,3-b]pyridin-4-yl)pyridin-2-amine]
> 6.30 | 5.30 to 6.30 | 5.30 to 6.30 | – | – | – | NC(=O)C1CCCN1C(=O)c1cc(-c2ccnc3[nH]ccc23)c[nH]1 (stereo not drawn) [compound 368]

More lines, now with the values behind:

SMILES | pKi (JAK3; [1]) | pKi (ROCK I; [1]) | pKi (JAK2; [1]) | pKi (JAK3; enzyme inhibition, Table 5) | pKi (ROCK I; [2]) | pKi (JAK2; enzyme inhibition, Table 5)
N#Cc1ccccc1-c1ccnc2[nH]ccc12 [compound 214] | 5.30 to 6.30 | 5.30 to 6.30 | < 5.30 | – | – | –
CCC(=O)N1CC[C@@H](Nc2c(Cl)cnc3[nH]ccc23)C1 [compound 176] | > 6.30 | 5.30 to 6.30 | > 6.30 | – | – | –
c1cc(-c2ccnc3[nH]ccc23)nc(N2CCC[C@H]2CN2CCCC2)c1 [compound 54] | – | – | – | < 5.30 | 5.30 to 6.30 | < 5.30
CC1CCCC(Nc2c(Cl)cnc3[nH]ccc23)C1 (stereo not drawn) [compound 161] | > 6.30 | > 6.30 | > 6.30 | – | – | –
CCNC(=O)c1cc(-c2c(Cl)cnc3[nH]ccc23)c[nH]1 [compound 278] | > 6.30 | < 5.40 | > 6.30 | – | – | –
N#CCc1cccc(-c2ccnc3[nH]ccc23)c1 [compound 63, [3-(1H-Pyrrolo[2,3-b]pyridin-4-yl)-phenyl]-acetonitrile] | – | – | – | > 6.30 | > 6.30 | > 6.30
Clc1cnc2[nH]ccc2c1-c1ccco1 [compound 136] | > 6.30 | > 6.30 | > 6.30 | – | – | –
CC(C)CCNC(=O)c1csc(-c2ccnc3[nH]ccc23)n1 [compound 413] | 5.30 to 6.30 | 5.30 to 6.30 | > 6.30 | – | – | –
O=C(Cc1nc(-c2ccnc3[nH]ccc23)ncc1F)NCC(F)(F)F [compound 266] | 5.30 to 6.30 | 5.30 to 6.30 | > 6.30 | – | – | –
C1=C(c2ccnc3[nH]ccc23)CCNC1 [compound 45] | – | – | – | 5.30 to 6.30 | > 6.30 | 5.30 to 6.30
N#CCC(=O)N1CCCC(Nc2c(Cl)cnc3[nH]ccc23)C1 (stereo not drawn) [compound 188] | > 6.30 | 5.30 to 6.30 | > 6.30 | – | – | –
CCNC(=O)c1cc(-c2ccnc3[nH]ccc23)c[nH]1 [compound 282] | > 6.30 | > 6.30 | > 6.30 | – | – | –
CC(C)(C)OC(=O)N1CC=C(c2ccnc3[nH]ccc23)CC1 [compound 44] | – | – | – | > 6.30 | > 6.30 | > 6.30
O=C(NCC(F)(F)F)c1cccc(-c2ccnc3[nH]ccc23)c1 [compound 251] | > 6.30 | > 6.30 | 5.30 to 6.30 | – | – | –
Clc1cnc2[nH]ccc2c1-c1cccc(NC2CCCC2)n1 [compound 32, 6-(5-Chloro-1H-pyrrolo[2,3-b]pyridin-4-yl)-N-cyclopentylpyrdin-2-anine] | – | – | – | < 5.30 | 5.30 to 6.30 | 5.30 to 6.30
CN(C)C1CCN(C(=O)c2cc(-c3c(Cl)cnc4[nH]ccc34)c[nH]2)C1 (stereo not drawn) [compound 355] | 5.30 to 6.30 | < 5.40 | > 6.30 | – | – | –
N#CCNC(=O)c1cc(-c2ccnc3[nH]ccc23)c[nH]1 [compound 295] | > 6.30 | > 6.30 | > 6.30 | – | – | –
